Measured values published in patent publication US8613914B2, “Peptidomimetic sulfamide compounds and antiviral uses thereof” (Novartis AG, priority 2009, dated 2013).

Target: HCV NS3-4A serine protease (full-length NS3-4A protein) (Hepatitis C virus genotype 1a (isolate 1) (HCV), UniProt P26664)
Test: HCV NS3-4A protease assay
Format: biochemical, HCV genotype 1a
Settings: strain HCV-1, fluorogenic peptide substrate, read-out: Protease assay Ex. 12 IC50
Experimental: The inhibitory activity of certain compounds of Table A against HCV NS3-4A serine protease is determined in a homogenous assay using the full-length NS3-4A protein (genotype 1a, strain HCV-1) and a commercially available internally-quenched fluorogenic peptide substrate as described by Taliani, M., et al. 1996 Anal. Biochem. 240:60-67, which is incorporated by reference in its entirety.

Sequence of HCV NS3-4A serine protease (full-length NS3-4A protein) (P26664 1027-1657): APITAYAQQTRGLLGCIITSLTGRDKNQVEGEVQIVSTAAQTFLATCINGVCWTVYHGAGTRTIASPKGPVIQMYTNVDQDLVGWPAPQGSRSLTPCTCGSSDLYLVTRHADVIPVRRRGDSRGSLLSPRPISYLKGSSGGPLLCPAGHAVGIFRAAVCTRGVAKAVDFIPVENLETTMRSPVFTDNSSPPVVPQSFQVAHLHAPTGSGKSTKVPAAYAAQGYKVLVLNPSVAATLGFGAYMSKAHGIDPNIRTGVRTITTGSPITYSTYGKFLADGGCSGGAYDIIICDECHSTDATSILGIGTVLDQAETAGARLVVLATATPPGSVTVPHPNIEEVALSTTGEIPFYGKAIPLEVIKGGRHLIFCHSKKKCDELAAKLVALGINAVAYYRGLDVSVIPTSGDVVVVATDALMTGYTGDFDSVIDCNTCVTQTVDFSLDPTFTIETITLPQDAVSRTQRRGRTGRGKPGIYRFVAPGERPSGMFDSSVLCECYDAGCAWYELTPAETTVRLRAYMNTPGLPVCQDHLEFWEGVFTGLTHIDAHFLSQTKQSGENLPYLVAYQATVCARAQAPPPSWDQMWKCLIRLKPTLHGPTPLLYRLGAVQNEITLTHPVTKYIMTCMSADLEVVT
Sequence of HCV NS3-4A serine protease (full-length NS3-4A protein) (P26664 1658-1711 partner): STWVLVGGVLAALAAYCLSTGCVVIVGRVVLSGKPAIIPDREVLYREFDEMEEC

Structure (SMILES) | IC50
C=C[C@@H]1C[C@]1(NC(=O)[C@@H]1C[C@@]2(CN1C(=O)[C@@H](NC(=O)[C@@H](NC(=O)C(C)(C)N1CCCCC1)C(C)(C)C)C(C)(C)C)C(C)(C)C21CCC1)C(=O)NS(=O)(=O)N1CCCC1 [Compound 24, (5R,8S)-7-[(2S)-2-({(2S)-3,3-dimethyl-2-[(2-methyl-2-piperidin-1-ylpropanoyl)amino]butanoyl}amino)-3,3-dimethylbutanoyl]-10,10-dimethyl-N-{(1R,2S)-1-[(pyrrolidin-1-ylsulfonyl)carbamoyl]-2-vinylcyclopropyl}-7-azadispiro[3.0.4.1]decane-8-carboxamide] | 65 nM
C=C[C@@H]1C[C@]1(NC(=O)[C@@H]1C[C@@]2(CN1C(=O)[C@@H](NC(=O)[C@@H](NC(=O)c1ccnc3ccccc13)C1CCCCC1)C(C)(C)C)C(C)(C)C21CCC1)C(=O)NS(=O)(=O)N1CCCC1 [Compound 197, (5R,8S)-7-[(2S)-2-({cyclohexyl[(quinolin-4-ylcarbonyl)amino]acetyl}amino)-3,3-dimethylbutanoyl]-10,10-dimethyl-N-{(1R,2S)-1-[(pyrrolidin-1-ylsulfonyl)carbamoyl]-2-vinylcyclopropyl}-7-azadispiro[3.0.4.1]decane-8-carboxamide] | 40 nM
C=C[C@@H]1C[C@]1(NC(=O)[C@@H]1C[C@@]2(CN1C(=O)[C@@H](NC(=O)[C@@H](NC(=O)[C@@H]1CCCN1CC)C1(C)CCCCC1)C(C)(C)C)C(C)(C)C21CCC1)C(=O)NS(=O)(=O)N1CCCC1 [Compound 136, (5R,8S)-7-[(2S)-2-{[(2S)-2-({[(2S)-1-ethylpyrrolidin-2-yl]carbonyl}amino)-2-(1-methylcyclohexyl)acetyl]amino}-3,3-dimethylbutanoyl]-10,10-dimethyl-N-{(1R,2S)-1-[(pyrrolidin-1-ylsulfonyl)carbamoyl]-2-vinylcyclopropyl}-7-azadispiro[3.0.4.1]decane-8-carboxamide] | 7 nM
C=C[C@@H]1C[C@]1(NC(=O)[C@@H]1C[C@@]2(CN1C(=O)[C@@H](NC(=O)[C@@H](NC(=O)[C@@H]1CCCCN1C(C)C)C(C)(C)C)C(C)C)C(C)(C)C21CCC1)C(=O)NS(=O)(=O)N(CC)CC [Compound 131, (5R,8S)-N-[(1R,2S)-1-{[(diethylamino)sulfonyl]carbamoyl}-2-vinylcyclopropyl]-7-[(2S)-2-{[(2S)-2-({[(2S)-1-isopropylpiperidin-2-yl]carbonyl}amino)-3,3-dimethylbutanoyl]amino}-3-methylbutanoyl]-10,10-dimethyl-7-azadispiro[3.0.4.1]decane-8-carboxamide] | 5.5 nM
C=C[C@@H]1C[C@]1(NC(=O)[C@@H]1C[C@@]2(CN1C(=O)[C@@H](NC(=O)[C@@H](NC(=O)[C@@H]1CCCCN1C(C)C)C1CCCCC1)C(C)(C)C)C(C)(C)C21CCC1)C(=O)NS(=O)(=O)N(C)CC1CC1 [Compound 50, (5R,8S)-7-[(2S)-2-{[(2S)-2-cyclohexyl-2-({[(2S)-1-isopropylpiperidin-2-yl]carbonyl}amino)acetyl]amino}-3,3-dimethylbutanoyl]-N-[(1R,2S)-1-({[(cyclopropylmethyl)(methyl)amino]sulfonyl}carbamoyl)-2-vinylcyclopropyl]-10,10-dimethyl-7-azadispiro[3.0.4.1]decane-8-carboxamide] | 3.8 nM
C=C[C@@H]1C[C@]1(NC(=O)[C@@H]1C[C@@]2(CN1C(=O)[C@@H](NC(=O)[C@@H](NC(=O)[C@H]1CCCCN1C)C1CCCCC1)C(C)(C)C)C(C)(C)C21CCC1)C(=O)NS(=O)(=O)N1CCCC1 [Compound 48, (5R,8S)-7-[(2S)-2-{[(2S)-2-cyclohexyl-2-({[(2R)-1-methylpiperidin-2-yl]carbonyl}amino)acetyl]amino}-3,3-dimethylbutanoyl]-10,10-dimethyl-N-{(1R,2S)-1-[(pyrrolidin-1-ylsulfonyl)carbamoyl]-2-vinylcyclopropyl}-7-azadispiro[3.0.4.1]decane-8-carboxamide] | 0.9 nM
C=C[C@@H]1C[C@]1(NC(=O)[C@@H]1C[C@@]2(CN1C(=O)[C@@H](NC(=O)[C@@H](NC(=O)[C@@H]1CCCCN1C1CCCC1)C(C)(C)C)C(C)(C)C)C(C)(C)C21CCC1)C(=O)NS(=O)(=O)N1CCCC1 [Compound 31, (5R,8S)-7-[(2S)-2-{[(2S)-2-({[(2S)-1-cyclopentylpiperidin-2-yl]carbonyl}amino)-3,3-dimethylbutanoyl]amino}-3,3-dimethylbutanoyl]-10,10-dimethyl-N-{(1R,2S)-1-[(pyrrolidin-1-ylsulfonyl)carbamoyl]-2-vinylcyclopropyl}-7-azadispiro[3.0.4.1]decane-8-carboxamide] | 8 nM
C=C[C@@H]1C[C@]1(NC(=O)[C@@H]1C[C@@]2(CN1C(=O)[C@@H](NC(=O)[C@@H](NC(=O)C1CCN1C(C)(C)C)C1CCCCC1)C(C)(C)C)C(C)(C)C21CCC1)C(=O)NS(=O)(=O)N1CCCC1 (stereo partly drawn) [Compound 40, (5R,8S)-7-[(2S)-2-{[(2S)-2-{[(1-tert-butylazetidin-2-yl)carbonyl]amino}-2-cyclohexylacetyl]amino}-3,3-dimethylbutanoyl]-10,10-dimethyl-N-{(1R,2S)-1-[(pyrrolidin-1-ylsulfonyl)carbamoyl]-2-vinylcyclopropyl}-7-azadispiro[3.0.4.1]decane-8-carboxamide] | 6 nM
C=C[C@@H]1C[C@]1(NC(=O)[C@@H]1C[C@@]2(CN1C(=O)[C@@H](NC(=O)[C@@H](NC(=O)[C@H]1CCCCN1C(C)C)C1CCCCC1)C(C)(C)C)C(C)(C)C21CCC1)C(=O)NS(=O)(=O)N(CC)CC [Compound 65, (5R,8S)-7-[(2S)-2-{[(2S)-2-cyclohexyl-2-({[(2R)-1-isopropylpiperidin-2-yl]carbonyl}amino)acetyl]amino}-3,3-dimethylbutanoyl]-N-[(1R,2S)-1-{[(diethylamino)sulfonyl]carbamoyl}-2-vinylcyclopropyl]-10,10-dimethyl-7-azadispiro[3.0.4.1]decane-8-carboxamide] | 4.5 nM
C=C[C@@H]1C[C@]1(NC(=O)[C@@H]1C[C@@]2(CN1C(=O)[C@@H](NC(=O)[C@@H](NC(=O)[C@@H]1CCCCN1C(C)C)C1CCOCC1)C(C)(C)C)C(C)(C)C21CCC1)C(=O)NS(=O)(=O)N1CCCC1 [Compound 44, (5R,8S)-7-[(2S)-2-{[(2S)-2-({[(2S)-1-isopropylpiperidin-2-yl]carbonyl}amino)-2-(tetrahydro-2H-pyran-4-yl)acetyl]amino}-3,3-dimethylbutanoyl]-10,10-dimethyl-N-{(1R,2S)-1-[(pyrrolidin-1-ylsulfonyl)carbamoyl]-2-vinylcyclopropyl}-7-azadispiro[3.0.4.1]decane-8-carboxamide] | 15 nM
CC[C@@H]1C[C@]1(NC(=O)[C@@H]1C[C@@]2(CN1C(=O)[C@@H](NC(=O)[C@@H](NC(=O)[C@@H]1CCCN1CC)C1CCCCC1)C(C)(C)C)C(C)(C)C21CCC1)C(=O)NS(=O)(=O)N1CCCC1 [Compound 99, (5R,8S)-7-[(2S)-2-{[(2S)-2-cyclohexyl-2-({[(2S)-1-ethylpyrrolidin-2-yl]carbonyl}amino)acetyl]amino}-3,3-dimethylbutanoyl]-N-{(1R,2R)-2-ethyl-1-[(pyrrolidin-1-ylsulfonyl)carbamoyl]cyclopropyl}-10,10-dimethyl-7-azadispiro[3.0.4.1]decane-8-carboxamide] | 20 nM
C=CC1CC1(NC(=O)[C@@H]1C[C@@]2(CN1C(=O)[C@@H](NC(=O)[C@@H](NC(=O)C1CCCCN1C(C)C)C(C)(C)C)C(C)(C)C)C(C)(C)C21CCC1)C(=O)NS(=O)(=O)N1CCC[C@H]1CO (stereo partly drawn) [Compound 163, (5R,8S)-N-[1-({[(2S)-2-(hydroxymethyl)pyrrolidin-1-yl]sulfonyl}carbamoyl)-2-vinylcyclopropyl]-7-[(2S)-2-{[(2S)-2-{[(1-isopropylpiperidin-2-yl)carbonyl]amino}-3,3-dimethylbutanoyl]amino}-3,3-dimethylbutanoyl]-10,10-dimethyl-7-azadispiro[3.0.4.1]decane-8-carboxamide] | 1500 nM
C=C[C@@H]1C[C@]1(NC(=O)[C@@H]1C[C@@]2(CN1C(=O)[C@@H](NC(=O)[C@@H](N1CCCC1=O)C(C)(C)C)C(C)(C)C)C(C)(C)C21CCC1)C(=O)NS(=O)(=O)N1CCCC1 [Compound 9, (5R,8S)-7-[(2S)-2-{[(2S)-3,3-dimethyl-2-(2-oxopyrrolidin-1-yl)butanoyl]amino}-3,3-dimethylbutanoyl]-10,10-dimethyl-N-{(1R,2S)-1-[(pyrrolidin-1-ylsulfonyl)carbamoyl]-2-vinylcyclopropyl}-7-azadispiro[3.0.4.1]decane-8-carboxamide] | 100 nM
C=C[C@@H]1C[C@]1(NC(=O)[C@@H]1C[C@@]2(CN1C(=O)[C@@H](NC(=O)[C@@H](NC(=O)[C@@H]1CCCCN1C(C)C)C1(C)CCCCC1)C(C)(C)C)C(C)(C)C21CCC1)C(=O)NS(=O)(=O)N(CC)CC [Compound 133, (5R,8S)-N-[(1R,2S)-1-{[(diethylamino)sulfonyl]carbamoyl}-2-vinylcyclopropyl]-7-[(2S)-2-{[(2S)-2-({[(2S)-1-isopropylpiperidin-2-yl]carbonyl}amino)-2-(1-methylcyclohexyl)acetyl]amino}-3,3-dimethylbutanoyl]-10,10-dimethyl-7-azadispiro[3.0.4.1]decane-8-carboxamide] | 3 nM
C=C[C@@H]1C[C@]1(NC(=O)[C@@H]1C[C@@]2(CN1C(=O)[C@@H](NC(=O)[C@@H](NC(=O)[C@@H]1CCCCN1C(C)C)C1CCCCC1)C(C)(C)C)C(C)(C)C21CCC1)C(=O)NS(=O)(=O)N(CC)CCC [Compound 106, (5R,8S)-7-[(2S)-2-{[(2S)-2-cyclohexyl-2-({[(2S)-1-isopropylpiperidin-2-yl]carbonyl}amino)acetyl]amino}-3,3-dimethylbutanoyl]-N-[(1R,2S)-1-({[ethyl(propyl)amino]sulfonyl}carbamoyl)-2-vinylcyclopropyl]-10,10-dimethyl-7-azadispiro[3.0.4.1]decane-8-carboxamide] | 10 nM
